What all share (test): NCI-60 cell line screen, 48 h
Assay [1] deals with ACHN.
The test system of assay [2] is BT-549.
Assay [3] deals with MOLT-4.
Assay [4] has as its system SN12C.
Assay [5] deals with RXF 393.
Assay [6] deals with EKVX.
In assay [7] the test system is SK-MEL-28.
Assay [8] concerns SNB-75.
The test system of assay [9] is CAKI-1.
Assay [10] relates to Hs-578T.
The test system of assay [11] is OVCAR-5.
The subject of assay [12] is KM12.
Assay [13] concerns SK-MEL-2.
Assay [14] relates to OVCAR-8.
Assay [15] concerns MDA-MB-231.
Assay [16] deals with UO-31.
Assay [17] concerns A549.
The subject of assay [18] is M14.
For assay [19], the system named is NCI-H226.
The test system of assay [20] is HCC 2998.

The text below walks through data of ChEMBL document CHEMBL1201862, “PubChem BioAssay data set” (2004).

SMILES strings stand for the structures.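 Following 48 hours of exposure in 96-well plates, responses at five concentrations were used to interpolate endpoints linearly. The concentration for 50% growth inhibition is given as GI50.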 Calls of active or inactive are those of the source. No stated cut-off is given here; in the data, active = GI50 up to about 1.1 µM and inactive = higher. Where a SMILES comes first, the peptide text is derived from it. The star is where a group is joined. Boc = CC(C)(C)OC(=O)*; Bn = c1ccc(C*)cc1

For the compound `Cn1c(N/N=C/c2ccc(Cl)cc2)nc(-c2ccc(Cl)cc2)c(C#N)c1=O`, the GI50 in [1] is 61.5 µM (inactive); in [2] it was 21.8 µM (inactive); in assay [3], 44.7 µM (inactive); in assay [4] it was 44.1 µM (inactive); in assay [5] it was 22.8 µM (inactive); in assay [6], 25.6 µM (inactive). In addition, the GI50 was 37.8 µM (inactive) in [7]; 25.3 µM (inactive) in assay [8]; 47 µM (inactive) in assay [9]; 30.3 µM (inactive) in assay [10]; 23.8 µM (inactive) in assay [11]; 22.6 µM (inactive) in [12]. The GI50 was 10.5 µM (inactive) in assay [13]; 14.6 µM (inactive) in assay [14]; 22.4 µM (inactive) in assay [15]; 16 µM (inactive) in assay [16]; 17.8 µM (inactive) in assay [17]; 20 µM (inactive) in assay [18].
For the compound `NC(=O)C(=CN1CC(=O)NC1=S)C(N)=O`, the GI50 in assay [1], in assay [2], in assay [3], in [19], in [4] and in assay [5] was > 100 µM (inactive) in each case. Besides, the GI50 in assay [6], in [7], in assay [20], in assay [8], in assay [9] and in [11] was > 100 µM (inactive) each time. For the same compound, the GI50 in assay [12], in assay [13], in assay [14], in assay [15], in [16] and in [17] was > 100 µM (inactive) throughout. Also, the GI50 in assay [18] was > 100 µM (inactive).
Turning to `COc1c(C)c(C/C=C(\C)CC/C=C(\C)CC/C=C(\C)CCC=C(C)C)c(OC)c2ccccc12`, the GI50 in assay [1], in [2], in assay [3], in assay [4], in assay [5] and in assay [6] was > 100 µM (inactive) each time. Moreover, the GI50 in [8], in [9], in [10], in [11], in assay [12] and in assay [13] was > 100 µM (inactive) in each case. Moreover, the GI50 in assay [14], in assay [15], in assay [16], in assay [17] and in [18] was > 100 µM (inactive) each time.
In the case of `C(/c1ccco1)=c1/nc(-c2ccccc2)n2c1nc1ccccc12`, the GI50 in assay [1] is 21.9 µM (inactive); in [2] it was 15.8 µM (inactive); in assay [3] it was 10.3 µM (inactive); in [19] it was 9.48 µM (inactive); in assay [4] it was 37.4 µM (inactive); in assay [5], 20.2 µM (inactive). The GI50 in assay [6] was 0.0107 µM (active); in assay [9] it was 5.51 µM (inactive); in assay [10], 49.1 µM (inactive); in [11], 69.8 µM (inactive); in assay [12], 11.2 µM (inactive); in [13] it was 28.2 µM (inactive). The GI50 in assay [14] was 45.1 µM (inactive); in assay [15], 16.5 µM (inactive); in assay [16], 67 µM (inactive); in assay [17], 50 µM (inactive); in assay [18] it was 22.6 µM (inactive).
As for `O=C(O)c1nc2cc(C(F)(F)F)ccc2nc1Nc1ccc(F)cc1`, the GI50 in assay [1] is 12.3 µM (inactive); in assay [2] it was 12.6 µM (inactive); in assay [3], 13.6 µM (inactive); in assay [19] it was 27 µM (inactive); in assay [5], 16.3 µM (inactive); in assay [6], 21.9 µM (inactive). Moreover, the GI50 is 25.6 µM (inactive) in [7]; 18.5 µM (inactive) in assay [8]; 25.2 µM (inactive) in [9]; 19.6 µM (inactive) in assay [10]; 35.1 µM (inactive) in assay [11]; 6.64 µM (inactive) in [12]. In addition, the GI50 in assay [13] was 7.16 µM (inactive); in assay [14], 19.4 µM (inactive); in [15], 22.9 µM (inactive); in [16], 15.8 µM (inactive); in assay [17], 11.2 µM (inactive); in assay [18] it was 27 µM (inactive).
Take `NC(=O)c1ncn(C2CCC(CP(=O)(O)O)C2)c1N` (centres undefined): the GI50 in assay [1], in assay [3], in assay [19], in assay [4], in [5] and in assay [6] was > 100 µM (inactive) throughout. The GI50 in assay [7], in assay [20], in assay [8], in assay [9], in assay [10] and in [11] was > 100 µM (inactive) each time. In addition, the GI50 in [12], in assay [13], in assay [14], in assay [15], in assay [16] and in [17] was > 100 µM (inactive) throughout. For the same compound, the GI50 in assay [18] is > 100 µM (inactive).
On to `COC(=O)C1C(OC(=O)C(Cl)(c2ccccc2)c2ccccc2)CC2CCC1N2C` (centres undefined), for which the GI50 in [1], in assay [2], in assay [3], in assay [19], in assay [4] and in assay [5] was > 100 µM (inactive) in each case. The GI50 is > 100 µM (inactive) in assay [6]; > 100 µM (inactive) in [7]; > 100 µM (inactive) in assay [20]; > 100 µM (inactive) in assay [8]; 94.6 µM (inactive) in assay [9]; > 100 µM (inactive) in assay [11]. Also, the GI50 in assay [12] is > 100 µM (inactive); in assay [14], > 100 µM (inactive); in assay [15], > 100 µM (inactive); in assay [16] it was > 100 µM (inactive); in assay [17], > 100 µM (inactive); in assay [18], 45.1 µM (inactive).
In the case of `C=CCOC(=O)NC1C(OC(C)[C@@H](NC(=O)OCc2ccccc2)C(=O)OC(C)(C)C)OC(COC(C)=O)C(OC(C)=O)C1OC(C)=O` (some centres undefined), the GI50 in assay [1] is > 100 µM (inactive); in [3], 25.8 µM (inactive); in [19], > 100 µM (inactive); in assay [4], 43.4 µM (inactive); in assay [5], > 100 µM (inactive); in [6], > 100 µM (inactive). The GI50 in assay [7] is > 100 µM (inactive); in assay [20], > 100 µM (inactive); in assay [8] it was 2.85 µM (inactive); in assay [9], > 100 µM (inactive); in assay [10], 72.4 µM (inactive); in [11], > 100 µM (inactive). Moreover, the GI50 in assay [12] is > 100 µM (inactive); in assay [14] it was 65 µM (inactive); in [15], 15.1 µM (inactive); in assay [16] it was 17.2 µM (inactive); in assay [17], > 100 µM (inactive); in assay [18] it was 46.1 µM (inactive).
Turning to `CCOC(=O)C(C#N)C1=CC(=O)C(=O)c2ccc(OC)cc21` (centres undefined), the GI50 in [1] is 15.3 µM (inactive); in [3], 48.5 µM (inactive); in assay [19] it was 21.6 µM (inactive); in assay [4], 18.6 µM (inactive); in [5], 21.8 µM (inactive); in [6], 22.7 µM (inactive). The GI50 was 21.3 µM (inactive) in assay [7]; 16.2 µM (inactive) in assay [20]; 20.8 µM (inactive) in assay [8]; 29 µM (inactive) in assay [9]; 18.1 µM (inactive) in assay [10]; 20.1 µM (inactive) in [11]. The GI50 in assay [12] was 20 µM (inactive); in assay [13], 12.8 µM (inactive); in assay [14], 20 µM (inactive); in assay [15], 14.6 µM (inactive); in [16] it was 17.5 µM (inactive); in assay [17] it was 19.7 µM (inactive). The GI50 in assay [18] is 15.6 µM (inactive).
For `CC(C)(Cl)C(Br)CCC(Br)(CCl)C(Cl)CBr` (centres undefined), the GI50 in assay [1], in [3], in assay [19], in [4], in assay [5] and in [6] was > 10 µM (inactive) each time. Also, the GI50 in assay [7], in [20], in assay [8], in assay [9], in assay [10] and in [11] was > 10 µM (inactive) each time. Besides, the GI50 in assay [12], in assay [13], in assay [14], in assay [15], in assay [16] and in assay [18] was > 10 µM (inactive) each time.
Turning to `COC(=O)C(CC(C)C)NC(=O)CNC(=O)C(Cc1ccc(OCc2ccccc2)cc1)NC(=O)C(COCc1ccccc1)NC(=O)OC(C)(C)C` (centres undefined) (Boc-S(Bn)Y(Bn)GL-OMe; configuration not given here), the GI50 in [1], in assay [2], in [3], in assay [19], in [4] and in [5] was > 100 µM (inactive) throughout. For the same compound, the GI50 in assay [6], in assay [7], in assay [8], in assay [9], in assay [10] and in [11] was > 100 µM (inactive) each time. Moreover, the GI50 in [12], in [14], in assay [15], in assay [16], in assay [17] and in [18] was > 100 µM (inactive) in each case.
